Like-named read-outs stand apart in the source and are kept apart here.
Tests used:
[1] = biological target: His-tagged KRAS G12D protein (Homo sapiens (Human), UniProt P01116, G12D); assay: KRAS G12D TR-FRET Assay; format: binding
How it was run: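 Each incubation ran at room temperature: enzyme with compound for 30 minutes, peptide for one hour, and detection reagents (0.4 nM europium anti-6×His, 5 nM streptavidin-d2) for one hour more. Protein and peptide stocks were each diluted to 20 nM before addition.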

[2] = biological target: GDP-bound KRAS protein (aa 1-169), containing both G12D and C118A amino acid substitutions (Homo sapiens (Human), UniProt P01116, C118A/G12D); assay: KRAS G12D Coupled Nucleotide Exchange Assay; format: biochemical
AsPC-1 cells = assay: AsPC-1 CTG Assay (CellTiter-Glo cell viability); format: cell-based, human; details: first value of the cell, read-out: G12D/C/V Cell Proliferation CTG (72 h) AsPC-1
How it was run: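 IC50 values derive from 4-parameter logistic fits of CellTiter-Glo luminescence, expressed relative to DMSO. Compound dilution series were applied to overnight-seeded AsPC-1 or SW620 cells (RPMI 1640, 10% FBS) for 72 h at 37 °C, 5% CO2.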

[3] = system: Phosphorylation of ERK1/2 in AsPC-1 cells; assay: Phospho-ERK1/2 MSD Assay; format: cell-based, human
How it was run: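 Read-out: MSD electrochemiluminescent detection of phosphorylated ERK1/2 in whole-cell lysates, fitted to a 4-parameter logistic curve for IC50. Prior to lysis, AsPC-1 cells (25,000 per well) received a 2 h compound dose-response at 37 °C.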

[4] = read-out: KRAS G12D Binding IC50
[5] = read-out: KRAS G12D Coupled Exchange IC50
[6] = Homo sapiens, ASPC1, 72 h, AsPC-1, 72 h
[7] = Homo sapiens, ASPC1, 2 h, read-out: 2 h p-ERK (AsPC-1 cells), IC50
[8] = TR-FRET, read-out: KRAS G12D Binding
[9] = 2 hours compound pre-incubation, read-out: KRAS G12D Coupled Exchange
[10] = Homo sapiens, ASPC1, 72 h, AsPC-1 cells (G12D), 72 h
[11] = Homo sapiens, ASPC1, 2 h, read-out: 2 h p-ERK (AsPC-1 cells)

Compound	IC50 [1, 4] [nM]	IC50 [2, 5] [nM]	IC50 (AsPC-1 cells; [6]) [nM]	IC50 [3, 7] [nM]	IC50 [1, 8] [nM]	IC50 [2, 9] [nM]	IC50 (AsPC-1 cells; [10]) [nM]	IC50 [3, 11] [nM]	IC50 (AsPC-1 cells; AsPC-1, 72 h) [nM]	IC50 ([3]; 2 h, read-out: 2 h p-ERK (AsPC-1 cells), IC50) [nM]
O=C1OCCc2c(Cl)cc3[nH]ncc3c2-c2ncc3c(nc(OC[C@@]45CCCN4C[C@@H](F)C5)nc3c2F)N2CCC[C@]3(C2)C[C@H](C3)O1 [Example 350, (1R,3S)-10-chloro-32-fluoro-24-(((2S,7aS)-2-fluorotetrahydro-1H-pyrrolo[1,2-a]pyrrol-7a(5H)-yl)methoxy)-4,6-dioxa-13,14,19,23,25,27-hexaazaheptacyclo[25.3.1.1~1,3~.1~18,22~.0~9,17~.0~12,16~.0~21,26~]tritriaconta-9,11,14,16,18(32),19,21,23,25-nonaen-5-one]	6	3	545	58.1						
O=C1OCCCc2c(Cl)cc(O)cc2-c2ncc3c(nc(OC[C@@]45CCCN4C[C@H](F)C5)nc3c2F)N2CCOC[C@H](C2)O1 [Example 355, (23S)-15-chloro-29-fluoro-4-(((2R,7aS)-2-fluorotetrahydro-1H-pyrrolo[1,2-a]pyrrol-7a(5H)-yl)methoxy)-13-hydroxy-20,22,25-trioxa-1,3,5,9-tetraazapentacyclo[21.4.1.1~6,10~.0~2,7~.0~11,16~]nonacosa-2,4,6,8,10(29),11,13,15-octaen-21-one]	2	1	82	5.2						
O=C1OCCc2c(F)cc3[nH]ncc3c2-c2ncc3c(nc(OC[C@@]45CCCN4C[C@H](F)C5)nc3c2F)N2CCC[C@]3(C2)C[C@H](C3)O1 [Example 356, (1R,3S)-10,32-difluoro-24-(((2R,7aS)-2-fluorotetrahydro-1H-pyrrolo[1,2-a]pyrrol-7a(5H)-yl)methoxy)-4,6-dioxa-13,14,19,23,25,27-hexaazaheptacyclo[25.3.1.1~1,3~.1~18,22~.0~9,17~.0~12,16~.0~21,26~]tritriaconta-9,11,14,16,18(32),19,21,23,25-nonaen-5-one]	4	3	94	8.2						
O=C1OCCc2c(Cl)cc3[nH]ncc3c2-c2cc3nc(OC[C@@]45CCCN4C[C@H](F)C5)nc(c3nn2)N2CCC[C@]3(C2)C[C@H](C3)O1 [Example 357, (1R,3S)-10-chloro-24-(((2R,7aS)-2-fluorotetrahydro-1H-pyrrolo[1,2-a]pyrrol-7a(5H)-yl)methoxy)-4,6-dioxa-13,14,19,20,23,25,27-heptaazaheptacyclo[25.3.1.1~1,3~.1~18,22~.0~9,17~.0~12,16~.0~21,26~]tritriaconta-9,11,14,16,18(32),19,21,23,25-nonaen-5-one]	14	10	1970	234						
C#CCO[C@@H]1CN2CCC[C@@]2(COc2nc3c4cnc(c(F)c4n2)-c2c(c(Cl)cc4[nH]ncc24)CCCOC(=O)O[C@@H]2COCCN3C2)C1 [Example 369, (26S)-18-Chloro-32-fluoro-4-(((2S,7aS)-2-(2-propyn-1-yloxy)tetrahydro-1H-pyrrolo[1,2-a]pyrrol-7a(5H)-yl)methoxy)-23,25,28-trioxa-1,3,5,9,14,15 hexaazahexacyclo[24.4.1.1˜6,10˜.0˜2,7˜.0˜11,19˜.0˜12,16˜]dotriaconta-2,4,6,8,10(32),11,13,16,18-nonaen-24-one]	13	8	5000	363						
Fc1c2ncc3c(nc(OC[C@@]45CCCN4C[C@H](F)C5)nc13)N1CCO[C@@H](Cc3ncc(o3)CCc3c(Cl)cc4[nH]ncc4c3-2)C1 [Example 374]					5	4	127	32.7		
Fc1c2ncc3c(nc(OC[C@@]45CCCN4C[C@H](F)C5)nc13)N1CCO[C@H](C1)c1coc(n1)CCCc1c(Cl)cc3[nH]ncc3c1-2 [Example 390, (18R)-9-chloro-31-fluoro-25-(((2R,7aS)-2-fluorotetrahydro-1H-pyrrolo[1,2-a]pyrrol-7a(5H)-yl)methoxy)-15,19-dioxa-5,6,22,24,26,30,33-heptaazaheptacyclo[25.3.1.1~14,17~.1~18,22~.0~2,10~.0~3,7~.0~23,28~]tritriaconta-1(31),2,4,7,9,14(33),16,23,25,27,29-undecaene]					5	3	74	9.5		
Fc1c2ncc3c(nc(OC[C@@]45CCCN4C[C@H](F)C5)nc13)N1CCO[C@@H](COCC[C@@H]3C[C@@H]3c3c(Cl)cc4[nH]ncc4c3-2)C1 [Example 392, (11S,13S,18R)-9-chloro-31-fluoro-25-(((2R,7aS)-2-fluorotetrahydro-1H-pyrrolo[1,2-a]pyrrol-7a(5H)-yl)methoxy)-16,19-dioxa-5,6,22,24,26,30-hexaazaheptacyclo[25.3.1.1~18,22~.0~2,10~.0~3,7~.0~11,13~.0~23,28~]dotriaconta-1(31),2,4,7,9,23,25,27,29-nonaene]					6	4	291	31.5		
O[C@]12C[C@@]3(CCCN(C3)c3nc(OC[C@@]45CCCN4C[C@H](F)C5)nc4c(F)c(ncc34)-c3c(c(Cl)cc4[nH]ncc34)CCc3cnc1o3)C2 [Example 396, (1S,3R)-11-chloro-33-fluoro-25-(((2R,7aS)-2-fluorotetrahydro-1H-pyrrolo[1,2-a]pyrrol-7a(5H)-yl)methoxy)-34-oxa-5,14,15,20,24,26,28-heptaazaoctacyclo[26.3.1.1~1,3~.1~4,7~.1~19,23~.0~10,18~.0~13,17~.0~22,27~]pentatriaconta-4,6,10,12,15,17,19(33),20,22,24,26-undecaen-3-ol]					7	3	2	1.2		
O=C1CCCCc2c(Cl)cc3[nH]ncc3c2-c2ncc3c(nc(OC[C@@]45CCCN4C[C@H](F)C5)nc3c2F)N2CC[C@@H]3[C@H](C2)N1CC3(F)F [Example 403, (28R,32R)-18-chloro-27,27,33-trifluoro-4-(((2R,7aS)-2-fluorotetrahydro-1H-pyrrolo[1,2-a]pyrrol-7a(5H)-yl)methoxy)-1,3,5,9,14,15,25-heptaazaheptacyclo[23.5.2.1~6,10~.0~2,7~.0~11,19~.0~12,16~.0~28,32~]tritriaconta-2,4,6,8,10(33),11,13,16,18-nonaen-24-one]					3	2	639	180		
CN(C)CC1(COc2nc3c4cnc(c(F)c4n2)-c2c(c(Cl)cc4[nH]ncc24)CCCCO[C@H]2C[C@]4(CCCN3C4)C2)CC1 [Example 405, 1-(1-((((1S,3R)-10-chloro-32-fluoro-4-oxa-13,14,19,23,25,27-hexaazaheptacyclo[25.3.1.1~1,3~.1~18,22~.0~9,17~.0~12,16~.0~21,26~]tritriaconta-9,11,14,16,18(32),19,21,23,25-nonaen-24-yl)oxy)methyl)cyclopropyl)-N,N-dimethylmethanamine]					5	4	174	41.2		
O[C@@H]1C[C@@H]2COCCCCc3c(Cl)cc4[nH]ncc4c3-c3ncc4c(nc(OC[C@@]56CCCN5C[C@H](F)C6)nc4c3F)N(C1)C2 [Example 406, (17S,19R)-9-Chloro-30-fluoro-24-(((2R,7aS)-2-fluorotetrahydro-1H-pyrrolo[1,2-a]pyrrol-7a(5H)-yl)methoxy)-15-oxa-5,6,21,23,25,29-hexaazahexacyclo[24.3.1.1˜17,21˜.0˜2,10˜.0˜3,7˜.0˜22,27˜]hentriaconta-1(30),2,4,7,9,22,24,26,28-nonaen-19-ol]					21	4	1940	261		
O[C@H]1C[C@H]2COCCCCc3c(Cl)cc4[nH]ncc4c3-c3ncc4c(nc(OC[C@@]56CCCN5C[C@H](F)C6)nc4c3F)N(C1)C2 [Example 407, (17R,19S)-9-chloro-30-fluoro-24-(((2R,7aS)-2-fluorotetrahydro-1H-pyrrolo[1,2-a]pyrrol-7a(5H)-yl)methoxy)-15-oxa-5,6,21,23,25,29-hexaazahexacyclo[24.3.1.1˜17,21˜.0˜2,10˜.0˜3,7˜.0˜22,27˜]hentriaconta-1(30),2,4,7,9,22,24,26,28-nonaen-19-ol]					6	1	49	2.5		
(15R)-22,31-Difluoro-8-(((2R,7aS)-2-fluorotetrahydro-1H-pyrrolo[1,2-a]pyrrol-7a(5H)-yl)methoxy)-27-hydroxy-15-methyl-16-oxa-3,7,9,11-tetraazahexacyclo[19.7.1.1˜2,6˜.1˜11,15˜0.0˜5,10˜.0˜25,29˜]hentriaconta-1(28),2(31),3,5,7,9,21,23,25(29),26-decaen-17-one bis(2,2,2-trifluoroacetate) [Example 43]	4	2							92	13

Reference: patent publication US20240294551A1 (AMGEN INC., priority 2022, published 2024)
